The test system of series [1] is rats of the Wistar strain. The experiment in a line: Analgesic effect (Randall-Selitto method). The note with it: oral; for ED50 / responders at 50 mg/kg: Rattus norvegicus; for responders at 50 mg/kg / Analgesic effect (Randall-Selitto): fraction of animals; for Analgesic effect (Randall-Selitto): dose 25 mg/kg (*). The class given is in vivo. As for the experimental part:
These tests were conducted according to the Randall-Selitto method using rats of the Wistar strain [L.O. Randall, J.J. Selitto: Arch. int. Pharmacodyn. 111, 409 (1957)]. Except where otherwise noted, the dose of test compound was 50 mg/kg.

Series [2] deals with carrageenan-induced edema. The experiment in a line: Anti-inflammatory effect (carrageenan edema method). It counts as in vivo, rats of the Wistar strain. The conditions noted are these: oral, Wistar rats; for ED50: Rattus norvegicus, ID₅₀. (In general: The carrageenan paw model is a standard test of acute inflammation.)
A further series relates to gastric acid secretions. The series is described as follows: Anti-ulcer activity: suppression of gastric acid secretions (Shay method). The note with it: gastric acid secretion. The class given is in vivo, rats.
The test system of series [3] is carrageenan-induced edema. The experiment in a line: Anti-inflammatory effect (carrageenan edema method). The class given is in vivo, rats of the Wistar strain. The note with it: Rattus norvegicus, percent inhibition of carrageenan-induced edema, oral. On the procedure:
The percent inhibition against carrageenan-induced edema in rats of the Wistar strain, using the conventional method of C.A. Winter, E.A. Risley, G.W. Nuss [J. Pharmacol., Exp. Therap., 141, 369 (1963)]. Except where otherwise noted, the dose of test compound was 50 mg/kg.

The test system of series [4] is male mice of the ddy strain. The experiment in a line: Acute toxicity. It counts as in vivo. The conditions noted are these: fraction of animals; dose 300 mg/kg oral in 0.5% carboxymethyl cellulose, observed for 7 days. On the procedure: The test animals employed were male mice of the ddy strain (age: 5 weeks). […] The dose of test compound was 300 mg/kg.
Series [5] deals with inflammation induced by anti-rat IgG rabbit serum. The experiment in a line: Anti-inflammatory effect (reversed passive alusas reaction, Evans blue extraction). The conditions noted are these: oral; for inhibition in vivo at 50 mg/kg / inhibition in vivo at 25 mg/kg: 2.5 h, percent inhibition of inflammation relative to control group; for ED50: ID₅₀, Sprague-Dawley rats. It counts as in vivo, rats of the Sprague-Dawley strain. As for the experimental part:
The test animals were rats of the Sprague-Dawley strain, which had first been fasted for 17 hours. The hair was trimmed from their dorsal portions by means of a hair clipper, and 0.1 ml/site of anti-rat IgG rabbit serum was injected intracutaneously at the trimmed part to induce inflammation. Except in the case of the control animals, to which no anti-inflammatory drug was administered, the test drug was administered orally immediately before inflammation was induced. Except where otherwise noted, the dose of test compound was 50 mg/kg. Two hours after induction of inflammation, a 1% by volume solution of Evans blue in physiological saline was injected intravenously into the tail of each rat in an amount of 1 ml per each animal. 30 minutes after this injection, the rats were sacrificed with carbon dioxide and their skins were peeled off to extract the chromogen of the blue spots. In more detail, the skins were cut into small pieces and extracted with 5 ml of an extraction solvent at room temperature for 2 days. The supernatant obtained by centrifugation was then measured spectrophotometrically at an absorption wavelength of 605 nm. The percent inhibition of inflammation of the group of rats to which the test drug was administered was determined relative to the control group.

Marks after values point to notes of the source that are not given here.

The results in this text go back to patent EP0353047B1, “Use of imidazopyrazole derivatives as analgesics and anti-inflammatory agents” (Sankyo Company Limited, priority 1988, dated 1990).

In general, ED50 refers to the dose at which the effect has come halfway, by size or by number of responders. Read a low ED50 as an effect at a small dose. By inhibition in vivo is commonly meant the change of the read-out against control, counted positive when it falls. The low end stands for a weak effect, the high end for a strong effect.

“3-methoxy-1-(4-methoxy-6-methylpyrimidin-2-yl)-5-methylpyrazole [Mepirizole, reference compound]”: the “Analgesic Randall-Selitto (ED₅₀)” value in series [1] (ED₅₀, Wistar rats) was determined as 63.9 mg/kg. Moreover, the “Anti-inflammatory Carrageenan (ID₅₀)” value in series [2] amounted to 106 mg/kg.
`CN(C)CCCOc1nn(Cc2ccccc2)c2ccccc12` [Benzydamine, reference compound]: the 50% effective dose (ED50) was above 200 mg/kg in series [1] (ED₅₀, Wistar rats) and 193 mg/kg in series [2].
For `CN/C(=N/CCSCc1nc[nH]c1C)NC#N` [Cimetidine, reference compound], the “Suppression rate (%)” value is on record as 62% in the series with gastric acid secretions (dosage 10 mg/kg i.d.) and 58% in the series with gastric acid secretions (dosage 30 mg/kg i.d.).
As to `FC(F)(F)c1ccc(-c2cc3[nH]ccn3n2)cc1` [Example 1, 6-(4-Trifluoromethylphenyl)-1H-imidazo[1,2-b]pyrazole], the inhibition in vivo at 50 mg/kg in series [3] came to 44.2%. Also, the responders at 50 mg/kg in series [1] was 80%. The “Toxicity (mouse)” value in series [4] was 0/3.
On to `FC(F)(F)c1cccc(-c2cc3[nH]ccn3n2)c1` [Example 2], for which the inhibition in vivo at 50 mg/kg in series [3] was determined as 54%; in series [5] it was 69.6%. This compound also showed a responders at 50 mg/kg in series [1] of 60%. Further, the “Toxicity (mouse)” value in series [4] is given as 0/3.
In the case of `c1ccc(-c2cc3[nH]ccn3n2)cc1` [Example 3, 6-phenyl-1H-imidazo[1,2-b]pyrazole], the inhibition in vivo at 50 mg/kg is 65.1% in series [3] and 88% in series [5]. Further, the 50% effective dose (ED50) was 13.9 mg/kg in series [5]; 6.1 mg/kg in series [1] (ED₅₀, Wistar rats); 36.6 mg/kg in series [2]. Besides, the responders at 50 mg/kg in series [1] was 100%. In addition, the “Toxicity (mouse)” value in series [4] is recorded as 0/5. Also, the figures for the “Suppression rate (%)” value in the series on gastric acid secretions (dosage 10 mg/kg i.d.) and in the series with gastric acid secretions (dosage 30 mg/kg i.d.) were 66% and 85%, respectively.
Consider `COc1ccc(-c2cc3[nH]ccn3n2)cc1` [Example 5], for which the inhibition in vivo at 50 mg/kg in series [3] was 53.7%; in series [5], 67.6%. For the same compound, in series [1], the responders at 50 mg/kg was 100%. Besides, the “Toxicity (mouse)” value in series [4] was 0/3.
For `Clc1ccc(-c2cc3[nH]ccn3n2)cc1` [Example 8, 6-(p-chlorophenyl)-1H-imidazo[1,2-b]pyrazole] the same measures were 76.5%, 74.7%, 100% and 0/3.
The compound `Cc1c(-c2cccs2)nn2cc[nH]c12` [Example 21, 7-Methyl-6-(2-thienyl)-1H-imidazo[1,2-b]pyrazole] gave an inhibition in vivo at 50 mg/kg in series [3] of 53.4%. Besides, at 25 mg/kg the inhibition in vivo in series [5] was 78.1%. Further, the median effective dose (ED50) in series [5] stood at 7.9 mg/kg; in series [1] (ED₅₀, Wistar rats), 10 mg/kg; in series [2] it was 22.3 mg/kg. This compound also showed a responders at 50 mg/kg in series [1] of 100%. Moreover, in series [4], the “Toxicity (mouse)” value is recorded as 0/3.
On to `c1coc(-c2cc3[nH]ccn3n2)c1` [Example 22, 6-(2-Furyl)-1H-imidazo[1,2-b]pyrazole], for which, in series [3], the inhibition in vivo at 50 mg/kg was 76.3%. The “Analgesic effect (Randall-Selitto)” value in series [1] is 4/5*. Further, the “Toxicity (mouse)” value in series [4] is recorded as 0/3.
For `CCc1c(-c2cccs2)nn2cc[nH]c12` [Example 24], testing at 50 mg/kg in series [3] gave an inhibition in vivo of 71.9%. Also, the “Analgesic effect (Randall-Selitto)” value in series [1] is on record as 4/5*. For the same compound, the “Toxicity (mouse)” value in series [4] was 0/3.
With `c1ccc(-c2cnn3cc[nH]c23)cc1` [Example 29, 7-Phenyl-1H-imidazo[1.2-b]pyrazole], the inhibition in vivo at 25 mg/kg in series [3] was 63.2%; in series [5] it was 72.2%. In addition, the median effective dose (ED50) in series [5] turned out to be 14.8 mg/kg; in series [1] (ED₅₀, Wistar rats) it was 5.1 mg/kg; in series [2], 20.1 mg/kg. The “Analgesic effect (Randall-Selitto)” value in series [1] is listed as 5/5*. Moreover, in series [4], the “Toxicity (mouse)” value is on record as 0/3.
For `c1csc(-c2cnn3cc[nH]c23)c1` [Example 32, 7-(2-thienyl)-1H-imidazo[1,2-b]pyrazole], the inhibition in vivo at 25 mg/kg was 54.7% in series [3] and 82.5% in series [5]. Besides, the 50% effective dose (ED50) in series [5] came out at 10.9 mg/kg; in series [1] (ED₅₀, Wistar rats), 6.9 mg/kg; in series [2], 23.4 mg/kg. Further, the “Analgesic effect (Randall-Selitto)” value in series [1] is 5/5*. Further, in series [4], the “Toxicity (mouse)” value is listed as 0/3.
